Experimental data taken from article PMC8725448 (Journal of Cannabis Research, 2022).
Values joined by “and” are separate entries in the source; they are usually repeats but may differ in a detail not shown here. Equal entries are not always repeated. Where two headings read alike, the source gives them in different places.

What was measured:
[1] = design: method as in Anderson et al. 2019b; settings: CBGA; ref Anderson et al. 2019b; cited from earlier work
[2] = system: hyperthermia-induced seizures in Scn1a^+/- mice; settings: cited from earlier work
[3] = molecular target: T1, human GPR55 (Homo sapiens, UniProt Q9Y2T6); design: method as in Anderson et al. 2021a, 2021b and unpublished data; settings: at therapeutically relevant concentrations; ref Anderson et al. 2021a, 2021b and unpublished data; cited from earlier work
T1 construct: expressed in transfected cells; host or cells: HEK293

[4] = molecular target: T2, CaV3.1 (Homo sapiens, UniProt O43497); design: method as in Anderson et al. 2021a, 2021b and unpublished data; settings: at therapeutically relevant concentrations; ref Anderson et al. 2021a, 2021b and unpublished data; cited from earlier work
T2 construct: expressed in transfected cells; host or cells: Flp-In T-REx HEK (tetracycline-induced)

[5] = system: maximal electroshock (MES) seizure threshold; design: method as in Anderson et al. 2021b; settings: ref Anderson et al. 2021b; cited from earlier work
[6] = system: control HEK293 cells; experiment: GPR55 negative control pERK experiment; format: cell-based, human; settings: 10 μM; control HEK293 cells without GPR55
Experimental: ERK phosphorylation (pERK) was detected using the AlphaScreen® SureFire® Phospho-ERK1/2 assay (Perkin Elmer; Waltham, USA) as previously described (Anderson et al. [2021b]). Briefly, the human embryonic kidney (HEK) 293 cells stably expressing human GPR55 in L-15 media were plated (110,000/well) into a Corning CellBIND (Corning Inc; Corning, USA) clear, flat-bottomed 96-well plate and incubated 20–24 h at 37°C in ambient CO2. Media was aspirated, 50 μL phenol red-free DMEM/F-12 was added to each well and incubated for 2–3 h at 37°C in a humidified 5% CO2 atmosphere. Compounds (10 μM in phenol red-free DMEM/F-12) were added and incubated for 20 min before media was aspirated and lysis buffer was added. Lysates (5 μL) were incubated with reaction mixture (7 μL) for 3.5 h at room temperature. A CLARIOstar plate reader (BMG Labtech; Offenburg, GER) was used to take fluorescence readings over 740 msec (excitation 680 nm, emission 520–620 nm). Fluorescence readings were normalized to those of 4 μM LPI, the endogenous GPR55 agonist. No effect of LPI (10 μM) is observed in control HEK293 cells (Supplemental Fig. 1). Final DMSO concentrations were ≤ 0.2%. […]
(LPI). Data are expressed as mean ± SEM normalized to 100 nM phorbol 12-myrisate 13-acetate (PMA), […]

[7] = ref Anderson et al. 2019b, 2021a, 2021b

T1 sequence (Q9Y2T6 whole entry): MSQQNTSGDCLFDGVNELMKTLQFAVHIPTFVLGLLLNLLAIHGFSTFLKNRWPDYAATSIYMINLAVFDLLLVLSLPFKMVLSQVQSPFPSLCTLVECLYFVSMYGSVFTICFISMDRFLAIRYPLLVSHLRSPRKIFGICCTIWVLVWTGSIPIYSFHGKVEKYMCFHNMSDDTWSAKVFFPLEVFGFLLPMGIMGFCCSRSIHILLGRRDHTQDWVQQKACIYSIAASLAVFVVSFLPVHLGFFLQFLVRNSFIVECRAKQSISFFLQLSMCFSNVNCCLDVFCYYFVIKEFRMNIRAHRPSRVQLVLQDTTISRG
T2 sequence (O43497 whole entry): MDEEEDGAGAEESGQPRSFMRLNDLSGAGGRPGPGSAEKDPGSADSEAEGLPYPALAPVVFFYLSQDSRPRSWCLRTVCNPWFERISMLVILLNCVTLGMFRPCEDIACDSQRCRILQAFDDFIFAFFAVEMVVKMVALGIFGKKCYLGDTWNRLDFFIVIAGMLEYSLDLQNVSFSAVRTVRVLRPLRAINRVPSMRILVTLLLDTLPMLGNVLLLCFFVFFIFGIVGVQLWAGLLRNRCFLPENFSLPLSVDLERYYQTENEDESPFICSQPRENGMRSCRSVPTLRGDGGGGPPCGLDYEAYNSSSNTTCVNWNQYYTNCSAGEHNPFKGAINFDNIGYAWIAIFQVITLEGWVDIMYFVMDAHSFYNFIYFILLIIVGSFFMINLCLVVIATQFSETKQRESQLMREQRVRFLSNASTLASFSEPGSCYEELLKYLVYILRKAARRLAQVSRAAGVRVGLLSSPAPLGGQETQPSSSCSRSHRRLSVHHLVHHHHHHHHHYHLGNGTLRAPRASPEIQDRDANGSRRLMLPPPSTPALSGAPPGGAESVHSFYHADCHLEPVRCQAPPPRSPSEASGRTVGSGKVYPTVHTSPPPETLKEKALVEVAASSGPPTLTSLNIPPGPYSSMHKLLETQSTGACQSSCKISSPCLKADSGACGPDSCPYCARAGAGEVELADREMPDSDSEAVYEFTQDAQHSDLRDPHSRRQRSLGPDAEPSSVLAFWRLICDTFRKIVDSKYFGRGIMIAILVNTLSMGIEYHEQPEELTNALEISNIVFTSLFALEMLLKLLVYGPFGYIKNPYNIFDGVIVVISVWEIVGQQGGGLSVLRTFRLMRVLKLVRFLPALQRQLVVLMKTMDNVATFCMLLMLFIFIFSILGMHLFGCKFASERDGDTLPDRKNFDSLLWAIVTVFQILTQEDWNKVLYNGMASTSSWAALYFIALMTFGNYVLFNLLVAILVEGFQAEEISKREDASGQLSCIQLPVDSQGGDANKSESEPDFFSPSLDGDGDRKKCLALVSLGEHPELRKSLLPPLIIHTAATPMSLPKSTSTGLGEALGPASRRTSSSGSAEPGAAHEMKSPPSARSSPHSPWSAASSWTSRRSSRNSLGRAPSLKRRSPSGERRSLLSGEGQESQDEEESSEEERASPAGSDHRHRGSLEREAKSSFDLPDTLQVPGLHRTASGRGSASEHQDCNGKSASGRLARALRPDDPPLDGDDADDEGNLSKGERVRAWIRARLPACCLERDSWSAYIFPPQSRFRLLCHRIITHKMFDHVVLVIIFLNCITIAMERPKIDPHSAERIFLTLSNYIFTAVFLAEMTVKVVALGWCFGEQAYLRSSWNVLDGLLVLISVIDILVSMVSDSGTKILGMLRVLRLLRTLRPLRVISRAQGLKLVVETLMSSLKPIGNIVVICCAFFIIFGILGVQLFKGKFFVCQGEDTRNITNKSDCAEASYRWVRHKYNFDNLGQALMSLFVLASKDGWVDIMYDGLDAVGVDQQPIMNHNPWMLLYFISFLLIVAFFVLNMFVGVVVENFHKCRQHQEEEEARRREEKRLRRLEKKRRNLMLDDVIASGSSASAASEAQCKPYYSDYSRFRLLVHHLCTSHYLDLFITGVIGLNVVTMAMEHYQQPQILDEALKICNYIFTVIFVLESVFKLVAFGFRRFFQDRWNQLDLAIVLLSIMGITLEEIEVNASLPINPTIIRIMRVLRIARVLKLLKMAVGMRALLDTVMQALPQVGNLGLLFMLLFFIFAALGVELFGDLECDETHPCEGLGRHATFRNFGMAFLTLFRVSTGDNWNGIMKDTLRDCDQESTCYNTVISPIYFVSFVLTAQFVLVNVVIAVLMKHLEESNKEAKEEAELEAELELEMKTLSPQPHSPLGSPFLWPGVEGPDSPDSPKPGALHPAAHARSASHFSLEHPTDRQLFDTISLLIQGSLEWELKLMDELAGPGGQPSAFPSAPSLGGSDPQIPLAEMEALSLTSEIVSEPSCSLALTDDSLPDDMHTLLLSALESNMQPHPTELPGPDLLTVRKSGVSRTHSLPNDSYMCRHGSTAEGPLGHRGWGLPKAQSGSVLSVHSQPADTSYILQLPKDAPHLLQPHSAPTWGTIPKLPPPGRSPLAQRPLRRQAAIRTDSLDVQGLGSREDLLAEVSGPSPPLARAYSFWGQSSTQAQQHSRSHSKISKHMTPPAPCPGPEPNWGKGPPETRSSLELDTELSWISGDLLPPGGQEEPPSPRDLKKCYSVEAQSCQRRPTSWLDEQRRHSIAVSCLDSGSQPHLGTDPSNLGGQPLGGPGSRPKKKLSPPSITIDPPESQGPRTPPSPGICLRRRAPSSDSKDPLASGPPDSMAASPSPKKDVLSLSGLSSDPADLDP

In the case of `CCCCCc1cc(O)c(C/C=C(\C)CCC=C(C)C)c(O)c1C(=O)O` [CBGA, Cannabigerolic acid], the “brain penetration / brain uptake” value [1] is listed as 2% and ~ 2%, the “efficacy against hyperthermia-induced seizures” value (shortened to “efficacy”) ([2]; 30 mg/kg, ref Anderson et al. 2021b) is listed as “effective” and the “increase of threshold temperature” value ([2]; 100 mg/kg, ref Anderson et al. 2021b) is listed as about 1 °C. For the same compound, the “efficacy” value [2, 7] was “anticonvulsant properties”, the “activity at GPR55” value [3] was “inhibition” and the “activity at Cav3.1 channels” value [4] was “inhibition”. For the same compound, the “anticonvulsant properties in MES seizure threshold test” value [5] was “anticonvulsant properties”.
For `CCCc1cc(O)c(C/C=C(\C)CCC=C(C)C)c(O)c1C(=O)O` [CBGVA], the “efficacy” value [2, 7] is given as “anticonvulsant”.
In the case of `CCCCCc1cc2c(c(O)c1C(=O)O)C=CC(C)(CCC=C(C)C)O2` (centres unmarked) [CBCA], the “efficacy” value [2, 7] is listed as “anticonvulsant”.
For `C=C(C)[C@@H]1CCC(C)=C[C@H]1c1c(O)cc(CCCCC)c(C(=O)O)c1O` [CBDA, cannabidiolic acid], the “efficacy” value [2, 7] is listed as “anticonvulsant”.
With Lysophosphatidylinositol [LPI] the “effect on ERK phosphorylation” value [6] was “No effect”.
For `CCCCCc1cc(O)c(C/C=C(\C)CCC=C(C)C)c(O)c1` [CBG, cannabigerol], the “efficacy” value [2, 7] is listed as “not effective”.
For `C=C(C)[C@@H]1CCC(C)=C[C@H]1c1c(O)cc(CCCCC)cc1O` [CBD, cannabidiol], the “increase of temperature threshold” value ([2]; 100 mg/kg, ref Anderson et al. 2019a, 2020, Kaplan et al. 2017) is listed as “approximately 0.5 °C”.
In the case of `C=C(C)[C@@H]1CCC(C)=C[C@H]1c1c(O)cc(CCC)c(C(=O)O)c1O` [CBDVA], the “efficacy” value [2, 7] is given as “anticonvulsant”.
